Assays:
[1] = Stability in outflow perfusate matrix; type: physicochemical; details: 37 °C
Method: The chromatographic method was validated for specificity, linearity and LOQ, accuracy and precision, extraction recovery, matrix, and stability. The validation parameters were studied using drug-free (blank) intestinal perfusate mixture that had passed through intestinal segments, and had been collected from five different rats. Specificity was evaluated by analyzing the intestinal perfusion blank and perfusion blank spiked with analytes to investigate the potential interferences of intestinal perfusate endogenous with the analytes; calibration and quality control (QC) samples were obtained by spiking mixed working standard solution in blank intestinal perfusion buffer. Calibration curves were constructed in the range of 20–1000 μg·mL^−1 for C1 (20, 40, 100, 200, 400, and 1000 μg·mL^−1), and 8.0–400.0 μg·mL^−1 for C2, C3, C4, DC1 and DC2 (8.0, 16.0, 40.0, 80.0, 160.0, and 400.0 μg·mL^−1). A weighted (1/x^2) linear least-squares linear regression method was used to determine the slope, intercept, and correlation coefficient; LOQ was determined by injection a series of standard solutions until the signal-to-noise (S/N) ratio was 10; Precision and accuracy were assessed at low, medium, and high concentration levels (40, 200, and 800 μg·mL^−1 for C1; 16, 80, and 320 μg·mL^−1 for C2, C3, C4, DC1, and DC2). Intra-day data was obtained by assaying six replicates at each concentration level in a day, and inter-day data was determined by analyzing QC samples in duplicates during three separate and successive days; The extraction recovery of the six analytes and IS from the outflow perfusate matrix was determined by comparing the mean peak areas of six replicates processed QC samples at each concentration level spiked before extraciton with those from outflow perfusate spiked after extraction; Matrix effect was assessed by comparing the mean peak areas of six replicates at each concentration level dissolved in the post-extracted intestinal perfusate matrix with those of neat standards (C1, C2, C3, C4, DC1, DC2, and IS) spiked in methanol at corresponding concentration levels; Stabilities of C1, C2, C3, C4, DC1, and DC2 in outflow perfusate matrix (12 h, 37 °C), processed samples (auto-sampler condition for 24 h), after freeze-thaw cycle and long-term cold storage (−20 °C, 14 days) were assayed by QC samples in six replicates at three concentration level.

rat duodenum = experiment: SPIP of MDQ-TS with or without amantadine (endocytosis inhibitor); type: in vivo; details: MDQ-TS 2.5 mg/mL; for decrease of absorption compared with non-Amantadine added group: amantadine 2.5 mmol·L^−1
Method: MDQ-TS perfusion samples at low, middle, and high concentration levels of 1.25, 2.5, and 5.0 mg·mL^−1 were prepared by separately dissolving MDQ-TS in the minimum amount of DMSO and diluted with K-R buffer solution. The amount of DMSO was 0.5% in the final perfusion solutions. C1, C2, C3, C4, DC1, and DC2 perfusion samples with the concentration equivalent to the amount contained in 2.5 mg·mL^−1 of MDQ-TS were individually prepared in the same way. Verapamil, amantadine and EDTA were directly dissolved in the MDQ-TS perfusate with terminal concentrations of 200 μmol·L^−1, 2.5 mmol·L^−1, and 2.5 mmol·L^−1, accordingly, and used for investigating the mechanisms involved for absorption.
In situ single-pass intestinal perfusion (SPIP) studies were performed using an experimental design adapted from the literature with some modifications. Briefly, male Sprague-Dawley rats weighing 180–220 g were acclimatized for at least one week before the experiment, and fasted for 18 h with free access to water before the perfusion experiment. Rats were anesthetized with an intraperitoneal injection of urethane (30 mg·kg^−1 body weight), and kept on a homeothermic blanket to maintain normal body temperature. The abdomen was opened with a midline longitudinal incision, and three segments of rat intestine (duodenum, jejunum, and ileum) of approximately 10 cm each were carefully cannulated on two ends with plastic tubing. Initially, the perfusion solution free of drug (37 °C) was pumped by peristaltic pump (BT100-1F, Longer Pump Co., Baoding, China) through the cannulated segments at a flow rate of 1 mL/min for approximately 30 min in order to clean out any residual debris. Secondly, the perfusion solution containing a known concentration of substance (C1, C2, C3, C4, DC1, DC2, and MDQ-TS) was perfused at 37 °C through the intestinal lumen at a constant flow rate of 0.2 mL/min. The first 20 min of period corresponds to steady state, i.e., when the substance is in equilibrium with the intestinal membrane. After steady state, samples were collected from distal portion of duodenum, jejunum and ileum at 10 min intervals (0–10, 10–20, 20–30, 30–40, 40–50, 50–60 min) in pre-weighted vials. Samples were immediately frozen at −20 °C until analysis by validated UPLC. During the experiment, care was taken to avoid disturbance of the circulatory system and the exposed segment was covered with a piece of sterilized gauze to keep it warm and moist by frequent application of warm (37 °C) saline. The intestinum tenue maintained its viability and intact state without disrupting the blood supply throughout the experimental period. Finally, animals were sacrificed after depth anesthesia by intraperitoneal injection of urethane, according to protocols for euthanasia in experimental animals. After death, the intestinal segment was removed for measurements of length and inside diameter.
The net water flux in the in situ perfusion studies (water absorption and efflux in the intestinal segment) was determined by gravimetric method. The effective absorption rate constant (Ka) and effective apparent permeability (Papp) of compounds in the intestinal segments were calculated according to the following mathematical expression:(1) Ka=(1−CoutQout/CinQin)Q/V (2) Papp=−Qln(CoutQout/CinQin)/2πrl where Cin and Cout are the concentration of test drug in the effluent perfusate through the inlet and outlet tube (μg·mL^−1), respectively. Qin and Qout represent the inlet and outlet volume of effluent perfusate (mL), respectively. Q is the volume flow rate of perfusion (mL·h^−1). V is the volume of the intestinal segment concerned (mL). 2πrl is the area of the mass transfer surface of intestinal segment concerned (cm^2). […]

[2] = In situ single-pass intestinal perfusion (SPIP), saponins administrated in monomer forms; type: in vivo; details: male, Sprague-Dawley, rat, other: in situ single-pass intestinal perfusion
How it was run: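 Male Sprague-Dawley rats (180–220 g), fasted 18 h and anesthetized with intraperitoneal urethane (30 mg·kg^−1), had ~10 cm segments of duodenum, jejunum and ileum cannulated. Saponins given individually in monomer form, dissolved via DMSO (0.5% final) in K-R buffer, were perfused at 0.2 mL/min at 37 °C. After 20 min of steady state, effluent was collected every 10 min and analyzed by UPLC. Ka and Papp were calculated after gravimetric water-flux correction.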

[3] = administered in monomer forms, summary bound
[4] = monomer form, duodenum, concentration equivalent to 2.5 mg·mL^−1 MDQ-TS, n = 5

C[C@@H]1CC[C@]2(C(=O)O)CC[C@]3(C)C(=CC[C@@H]4[C@@]5(C)CC[C@H](O)[C@@](C)(C(=O)O)[C@@H]5CC[C@]43C)[C@@H]2[C@]1(C)O [C1, ilexgenin A]
stability in outflow perfusate matrix [1]: at least 12 h
decrease of absorption compared with non-Amantadine added group (rat duodenum): 40%
Papp [2, 3]: > 20 ×10⁻⁶ cm/s
Papp [2, 4]: 55 ×10⁻⁶ cm/s
Papp ([2]; monomer form, ileum, n = 5): 50 ×10⁻⁶ cm/s
Papp ([2]; monomer form, jejunum, n = 5): 58.3 ×10⁻⁶ cm/s

CC1CCC2(C(=O)OC3OC(CO)C(O)C(O)C3O)CCC3(C)C(=CCC4C5(C)CCC(O)C(C)(C(=O)O)C5CCC43C)C2C1(C)O (centres unmarked) [C2, ilexsaponin A1]
stability in outflow perfusate matrix [1]: at least 12 h
decrease of absorption compared with non-Amantadine added group (rat duodenum): 71%
Papp [2, 3]: > 20 ×10⁻⁶ cm/s
Papp [2, 4]: 40 ×10⁻⁶ cm/s
Papp ([2]; monomer form, ileum, n = 5): 41.7 ×10⁻⁶ cm/s
Papp ([2]; monomer form, jejunum, n = 5): 41.7 ×10⁻⁶ cm/s

C[C@H]1CC[C@]2(C(=O)O)CC[C@]3(C)C(=CC[C@@H]4[C@@]5(C)CC[C@H](O[C@@H]6OC[C@@H](O)[C@H](O)[C@H]6O[C@@H]6O[C@H](CO)[C@@H](O)[C@H](O)[C@H]6O)C(C)(C)[C@@H]5CC[C@]43C)[C@@H]2[C@]1(C)O [C3, ilexsaponin B1]
stability in outflow perfusate matrix [1]: at least 12 h

C[C@@H]1O[C@@H](O[C@H]2[C@H](O[C@H]3[C@H](O[C@H]4CC[C@]5(C)[C@H]6CC=C7[C@H]8[C@](C(=O)O)(CC[C@H](C)[C@@]8(C)O)CC[C@@]7(C)[C@]6(C)CC[C@H]5C4(C)C)OC[C@@H](O)[C@@H]3O)O[C@H](CO)[C@@H](O)[C@@H]2O)[C@H](O)[C@H](O)[C@H]1O [C4, ilexsaponin B2]
stability in outflow perfusate matrix [1]: at least 12 h
decrease of absorption compared with non-Amantadine added group (rat duodenum): 31%

C[C@@H]1O[C@@H](O[C@H]2[C@H](O[C@H]3[C@H](O[C@H]4CC[C@]5(C)[C@H]6CC=C7[C@H]8[C@](C(=O)O[C@@H]9O[C@H](CO)[C@@H](O)[C@H](O)[C@H]9O)(CC[C@H](C)[C@@]8(C)O)CC[C@@]7(C)[C@]6(C)CC[C@H]5C4(C)C)OC[C@@H](O)[C@@H]3O)O[C@H](CO)[C@@H](O)[C@@H]2O)[C@H](O)[C@H](O)[C@H]1O [DC2, ilexoside O]
stability in outflow perfusate matrix [1]: at least 12 h
decrease of absorption compared with non-Amantadine added group (rat duodenum): 100%
absorption when co-perfusion with Amantadine (rat duodenum; amantadine 2.5 mmol·L^−1, result in words): completely inhibited

ilexsaponin B3 [DC1]
stability in outflow perfusate matrix [1]: at least 12 h
decrease of absorption compared with non-Amantadine added group (rat duodenum): 53%

Reference: paper PMC6150237, “Study of Absorption Characteristics of the Total Saponins from Radix Ilicis Pubescentis in an In Situ Single-Pass Intestinal Perfusion (SPIP) Rat Model by Using Ultra Performance Liquid Chromatography (UPLC)” (Molecules : A Journal of Synthetic Chemistry and Natural …, 2017)
